According to US20040044060A1, “Fungicidal mixture” (priority 2001, published 2004):

Tested on: Plasmopara viticola
Test: Protective activity against peronospora of vines caused by Plasmopara viticola (potted vines, spray treatment)
Assay type: in vivo
Details: individual active compound, vine leaves cv. Müller-Thurgau, untreated 75% infection
Protocol: The active compounds, separately or jointly, were formulated as a 10% emulsion in a mixture of 63% by weight of cyclohexanone and 27% by weight of emulsifier, and diluted with water to the desired concentration.
Evaluation was carried out by determining the infected leaf areas in percent. These percentages were converted into efficacies. The efficacy (W) was calculated as follows using Abbot's formula: […]
α corresponds to the fungal infection of the treated plants in % and β corresponds to the fungal infection of the untreated (control) plants in % An efficacy of 0 means that the infection level of the treated plants corresponds to that of the untreated control plants; an efficacy of 100 means that the treated plants were not infected.
The expected efficacies of the mixtures of the active compounds were determined using Colby's formula [R. S. Colby, Weeds 15, 20-22 (1967)] and compared with the observed efficacies.
E=x+y−x·y/100 Colby's formula: […]
E expected efficacy, expressed in % of the untreated control, when using the mixture of the active compounds A and B at the concentrations a and b x efficacy, expressed in % of the untreated control, when using active compound A at a concentration of a y efficacy, expressed in % of the untreated control, when using active compound B at a concentration of b.
Protective Activity Against peronospora vines Caused by Plasmopara viticola Leaves of potted vines of the cultivar “Müller-Thurgau” were sprayed to runoff point with an aqueous preparation of active compound which had been prepared from a stock solution comprising 10% of active compound, 85% of cyclohexanone and 5% of emulsifier. The next day, the undersides of the leaves were inoculated with an aqueous zoospore suspension of Plasmopara viticola. The vines were then initially placed in a water-vapor-saturated chamber at 24° C. for 48 hours and then in a greenhouse at 20-30° C. for 5 days. […] The extent to which the infection had developed on the undersides of the leaves was then determined visually.

In the case of `Cc1ccc(-c2c(Cl)nc(C#N)n2S(=O)(=O)N(C)C)cc1` [Ia, cyazofamid], the “Efficacy in % of the untreated control” value (0.05 ppm in the spray liquor) is reported as 47%, the “Efficacy in % of the untreated control” value (0.1 ppm in the spray liquor) is reported as 73% and the “Efficacy in % of the untreated control” value (0.2 ppm in the spray liquor) is reported as 87%.
